Assay [1] deals with Canine cardiac lipases. The experiment in a line: Myocardial lipase assay. In kind it is biochemical. The note with it: triolein emulsion, pH 6.8, read-out: Lipase I50. The protocol: All compounds were dissolved in DMSO (final concentration 3.0%) and tested in duplicate at a concentration of 100 μM. Canine cardiac lipases were obtained by extracting washed heart membranes with buffer plus heparin and a small amount of Triton X-100 detergent. Because these enzymes are only active at an oil-water interface, the enzyme reaction is run in an oil-water emulsion that contains triolein substrate, Tris buffer (50 mM, pH 6.8) and a small amount of bovine serum albumin (0.5%) added to stabilize the emulsion. A small amount of tritiated triolein was added to the unlabelled triolein substrate. Tritium-labelled oleic acid released by the lipases was extracted into hexane, separated from unreacted triolein and counted in a scintillation counter. Inhibitory agents reduce the amount of radioactivity appearing in the free fatty acid fraction isolated in the extraction procedure.

The test system of assay [2] is rat adipocyte lipolysis. The experiment in a line: Rat adipocyte assay (epinephrine-stimulated lipolysis, glycerol release). In kind it is cell-based. The note with it: rat adipocytes, epinephrine 3 μM plus methylisobutylxanthine 10 μM, 1 hour 37° C., read-out: Adipocyte I50. As to the method: Abdominal fat pads were removed from male rats weighing 200-250 grams and placed in Krebs-bicarbonate buffer gassed with 95% O2 /5% CO2. The fat pads were digested with collagenase for 1 hour at 37° C., washed twice with Krebs-bicarbonate buffer and distributed among a set of 20 ml plastic counting vials. Two such vials received only buffer and cells (4 ml) but no agonists or antagonists. The remaining vials received epinephrine (3 μM) plus the phosphodiesterase inhibitor methylisobutylxanthine (10 μM). Test compounds were dissolved in DMSO or water to a concentration of […] and 40 μl was added to the buffer plus cells in the counting vials. The final compound concentration for routine screening was 200 μM (final concentration of DMSO=1%).
The cells were incubated for 1 hour at 37° C. under a 95% O2 /5% CO2 atmosphere. The incubation was stopped by placing the vials in crushed ice. The cells and medium were transferred to test tubes, centrifuged and the cell layer removed by aspiration. The aqueous phase was assayed for glycerol using the enzyme glycerol dehydrogenase. The glycerol dihydrogenase assay for glycerol depends on the enzyme catalyzed conversion of glycerol to glyceraldehyde and NAD to NADH. The assay can detect as little as 5-10 nanomoles of glycerol. The aqueous phase, following removal of cells, usually contained about 50 to 80 nanomoles of glycerol per 300 μl of assayed sample if no inhibitory activity was present. Samples from the control tubes (no agonist) usually contained 0-5 nanomoles of glycerol per 300 μl of sample.

Assay [3] relates to In Vivo Lipolysis. As to the kind of experiment: In vivo lipolysis assay (serum unesterified fatty acids in fasted rats). The following applies: 2 hours after drug. On the set-up: species or system rat.

On to `COc1ccc(NC(=O)Oc2cccc3ccoc23)cc1` [Example 1, 7-Benzofuranyl N-(4-methoxyphenyl)carbamate], for which the IC50 in assay [1] was 16 µM; in assay [2], 0.3 µM. For the same compound, the “In Vivo Lipolysis % Inhib. at mg/Kg” value in assay [3] (25 mg/Kg p.o.) was determined as 97%.

As to `O=C(NC1CCCCC1)Oc1cccc2ccoc12` [Example 3, 7-Benzofuranyl N-(cyclohexyl)carbamate], the figures for the IC50 in assay [1] and in assay [2] were 10 µM and 12 µM, respectively. The “In Vivo Lipolysis % Inhib. at mg/Kg” value in assay [3] (100 mg/Kg p.o.) was 26%.

Take `COc1ccc(NC(=O)Oc2cccc3ccoc23)c(OC)c1` [Example 2, 7-Benzofuranyl N-(2,4-dimethoxy)phenyl carbamate]: the IC50 in assay [1] came to 40 µM; in assay [2], 0.3 µM. For the same compound, the “In Vivo Lipolysis % Inhib. at mg/Kg” value in assay [3] (100 mg/Kg p.o.) is recorded as 71%.

As for `COc1ccc(NC(=O)Oc2cccc3ocnc23)cc1` [Example 4, 4-Benzoxazoyl N-(4-methoxyphenyl)carbanamate], the IC50 in assay [1] was 79 µM; in assay [2], 2.4 µM. Besides, the “In Vivo Lipolysis % Inhib. at mg/Kg” value in assay [3] (100 mg/Kg i.p.) was found to be 40%.

These data come from US4579865A, “Benzofuranyl carbamates” (USV Pharmaceutical Corp., priority 1984, dated 1986).
